From ChEMBL document CHEMBL5505996, “Discovery of novel osthole derivatives exerting anti-inflammatory effect on DSS-induced ulcerative colitis and LPS-induced acute lung injury in mice” (Eur J Med Chem, 2024)
Calls of active or inactive are those of the source. The calls are words filed in the database; no cut-off is given here.

Experiments:
J774.A1 [1] = assay: Cytotoxicity against mouse J774.A1 cells assessed as reduction in cell proliferation at 10 uM measured after 24 hrs by CCK-8 assay; assay type: toxicity, cell-based; details: j774.a1, 24 h
THP-1 = assay: Antiinflammatory activity against LPS-induced PMA-differentiated human THP-1 cells assessed as inhibition of TNF-alpha release pretreated for 30 mins followed by LPS stimulation and measured after 24 hrs by ELISA; assay type: functional, cell-based
RAW264.7 [2] = assay: Antiinflammatory activity against LPS-induced mouse RAW264.7 cells assessed as inhibition of IL-6 release pretreated for 30 mins followed by LPS stimulation and measured after 24 hrs by ELISA; assay type: functional, cell-based
RAW264.7 [3] = assay: Antiinflammatory activity against LPS-induced mouse RAW264.7 cells assessed as inhibition of TNF-alpha release pretreated for 30 mins followed by LPS stimulation and measured after 24 hrs by ELISA; assay type: functional, cell-based
RAW264.7 [4] = assay: Potency index, ratio of osthole IC50 to test compound IC50 for antiinflammatory activity against LPS-induced mouse RAW264.7 cells assessed as inhibition of TNF-alpha release pretreated for 30 mins followed by LPS stimulation and measured after 24 hrs by ELISA; assay type: functional; details: time 24.5 hrs
[5] = Half life in male Sprague-Dawley rat at 10 mg/kg, po by UPLC-MS/MS analysis; assay type: ADME, organism-based; details: in vivo
[6] = AUC (0 to t) in male Sprague-Dawley rat at 10 mg/kg, po by UPLC-MS/MS analysis; assay type: ADME, organism-based; details: in vivo
[7] = Acute toxicity in ICR mouse assessed as reduction in body weight at 500 mg/kg, po measured daily for 10 days; assay type: organism-based; details: in vivo, 240 h, time 10 day
[8] = Acute toxicity in ICR mouse assessed as pathological changes in heart at 500 mg/kg, po measured daily for 10 days by H and E staining based analysis; assay type: organism-based; details: in vivo, 240 h, time 10 day
[9] = Acute toxicity in ICR mouse assessed as pathological changes in liver at 500 mg/kg, po measured daily for 10 days by H and E staining based analysis; assay type: organism-based; details: in vivo, 240 h, time 10 day
[10] = Acute toxicity in ICR mouse assessed as pathological changes in spleen at 500 mg/kg, po measured daily for 10 days by H and E staining based analysis; assay type: organism-based; details: in vivo, 240 h, time 10 day
[11] = Acute toxicity in ICR mouse assessed as pathological changes in lung at 500 mg/kg, po measured daily for 10 days by H and E staining based analysis; assay type: organism-based; details: in vivo, 240 h, time 10 day
[12] = Acute toxicity in ICR mouse assessed as pathological changes in kidney at 500 mg/kg, po measured daily for 10 days by H and E staining based analysis; assay type: organism-based; details: in vivo, 240 h, time 10 day
J774.A1 [13] = assay: Inhibition of NFkappaB signaling pathway in LPS-induced mouse J774.A1 cells assessed as reduction in IkappaBalpha degradation pretreated for 2 hrs followed by LPS stimulation and measured after 30 mins by Western blot analysis; assay type: cell-based; details: time 2.5 hrs
J774.A1 [14] = assay: Inhibition of MAPK signaling pathway in LPS-stimulated mouse J774.A1 cells assessed as reduction in p38 phosphorylation at 10 uM pretreated for 2 hrs followed by LPS stimulation and measured after 30 mins by Western blot analysis; assay type: cell-based; details: time 2.5 hrs
J774.A1 [15] = assay: Inhibition of MAPK signaling pathway in LPS-stimulated mouse J774.A1 cells assessed as reduction in ERK1/2 phosphorylation at 10 uM pretreated for 2 hrs followed by LPS stimulation and measured after 30 mins by Western blot analysis; assay type: cell-based; details: time 2.5 hrs
[16] = biological target: Interleukin-1 receptor-associated kinase 1 (Homo sapiens) (UniProt P51617); assay: Inhibition of IRAK1 (unknown origin) at 10 uM relative to control
Interleukin-1 receptor-associated kinase 1 (Homo sapiens), sequence (P51617 whole entry, looked up): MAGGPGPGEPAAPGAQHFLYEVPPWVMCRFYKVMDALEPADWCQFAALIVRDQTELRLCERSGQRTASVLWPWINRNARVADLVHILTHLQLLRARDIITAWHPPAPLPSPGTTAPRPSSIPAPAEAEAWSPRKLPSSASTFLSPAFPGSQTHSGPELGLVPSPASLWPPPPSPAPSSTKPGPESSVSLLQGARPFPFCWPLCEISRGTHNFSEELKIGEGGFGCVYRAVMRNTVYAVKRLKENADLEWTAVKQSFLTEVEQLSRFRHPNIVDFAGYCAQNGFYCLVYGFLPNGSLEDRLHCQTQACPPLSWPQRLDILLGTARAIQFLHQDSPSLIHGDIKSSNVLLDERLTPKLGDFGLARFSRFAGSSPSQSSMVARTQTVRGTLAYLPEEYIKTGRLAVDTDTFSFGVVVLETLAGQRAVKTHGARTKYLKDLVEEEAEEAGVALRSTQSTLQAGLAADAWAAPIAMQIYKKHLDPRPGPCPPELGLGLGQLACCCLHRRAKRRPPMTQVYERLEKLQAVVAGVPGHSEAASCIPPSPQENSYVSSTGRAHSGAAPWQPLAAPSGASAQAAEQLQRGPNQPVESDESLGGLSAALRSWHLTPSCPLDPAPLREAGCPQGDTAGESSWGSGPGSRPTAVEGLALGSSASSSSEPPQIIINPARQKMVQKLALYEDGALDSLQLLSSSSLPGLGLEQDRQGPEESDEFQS

Mus musculus [17] = assay: Antiinflammatory activity against C57BL/6 mouse model of DSS induced ulcerative colitis assessed as reversal of weight loss at 20 mg/kg, po administered daily for 10 days; assay type: functional, organism-based; details: time 10.0 day
Mus musculus [18] = assay: Antiinflammatory activity against C57BL/6 mouse model of DSS induced ulcerative colitis assessed as reversal of shortened intestinal length due to fecal obstruction at 20 mg/kg, po administered daily for 10 days; assay type: functional, organism-based; details: time 10.0 day
Mus musculus [19] = assay: Antiinflammatory activity against C57BL/6 mouse model of DSS induced ulcerative colitis assessed as reversal of splenomegaly at 20 mg/kg, po administered daily for 10 days; assay type: functional, organism-based; details: time 10.0 day
Mus musculus [20] = assay: Antiinflammatory activity against C57BL/6 mouse model of DSS induced ulcerative colitis assessed as reversal of splenomegaly at 100 mg/kg, po administered daily for 10 days; assay type: functional, organism-based; details: time 10.0 day
Mus musculus [21] = assay: Antiinflammatory activity against C57BL/6 mouse model of DSS induced ulcerative colitis assessed as protection against mucosal damage at 20 mg/kg, po administered daily for 10 days by H and E staining based analysis; assay type: functional, organism-based; details: time 10.0 day
Mus musculus [22] = assay: Antiinflammatory activity against C57BL/6 mouse model of DSS induced ulcerative colitis assessed as protection against crypt necrosis at 20 mg/kg, po administered daily for 10 days by H and E staining based analysis; assay type: functional, organism-based; details: time 10.0 day
Mus musculus [23] = assay: Antiinflammatory activity against C57BL/6 mouse model of DSS induced ulcerative colitis assessed as protection against goblet cell depletion at 20 mg/kg, po administered daily for 10 days by H and E staining based analysis; assay type: functional, organism-based; details: time 10.0 day
Mus musculus [24] = assay: Antiinflammatory activity against C57BL/6 mouse model of DSS induced ulcerative colitis assessed as reduction in inflammatory cytokines infiltration in intestine at 20 mg/kg, po administered daily for 10 days by immunohistochemical staining based analysis; assay type: functional, organism-based; details: time 10.0 day
Mus musculus [25] = assay: (§1) Antiinflammatory activity against C57BL/6 mouse model of LPS induced acute lung injury assessed as reduction in total number of cells in BALF at 20 mg/kg, po administered every 12 hrs for 3 times followed by LPS stimulation for 6 hrs starting from 30 mins post last dose; assay type: functional, organism-based; details: time 42.5 hrs
Mus musculus [26] = assay: (§2) Antiinflammatory activity against C57BL/6 mouse model of LPS induced acute lung injury assessed as reduction in IL-6 level in BALF at 20 mg/kg, po administered every 12 hrs for 3 times followed by LPS stimulation for 6 hrs starting from 30 mins post last dose by ELISA; assay type: functional, organism-based; details: time 42.5 hrs
Mus musculus [27] = assay: as §1, with “thickening” for “total number”, “alveolar septa” for “cells in BALF”, “dose by H and E staining based analysis” for “dose”; assay type: functional, organism-based; details: time 42.5 hrs
Mus musculus [28] = assay: as §2, with “lung” for “BALF”, “immunohistochemical staining based analysis” for “ELISA”; assay type: functional, organism-based; details: time 42.5 hrs
Mus musculus [29] = assay: Antiinflammatory activity against C57BL/6 mouse model of LPS induced acute lung injury assessed as reduction in IL-6 mRNA expression in lung at 20 mg/kg, po administered every 12 hrs for 3 times followed by LPS stimulation for 6 hrs starting from 30 mins post last dose by RT-qPCR analysis; assay type: functional, organism-based; details: time 42.5 hrs
Mus musculus [30] = assay: Antiinflammatory activity against C57BL/6 mouse model of LPS induced acute lung injury assessed as reduction in TNF-alpha mRNA expression in lung at 20 mg/kg, po administered every 12 hrs for 3 times followed by LPS stimulation for 6 hrs starting from 30 mins post last dose by RT-qPCR analysis; assay type: functional, organism-based; details: time 42.5 hrs
[31] = biological target: Mitogen-activated protein kinase kinase kinase 7 (Homo sapiens) (UniProt O43318); assay: Inhibition of TAK1 (unknown origin) at 10 uM relative to control
Mitogen-activated protein kinase kinase kinase 7 (Homo sapiens), sequence (O43318 whole entry, looked up): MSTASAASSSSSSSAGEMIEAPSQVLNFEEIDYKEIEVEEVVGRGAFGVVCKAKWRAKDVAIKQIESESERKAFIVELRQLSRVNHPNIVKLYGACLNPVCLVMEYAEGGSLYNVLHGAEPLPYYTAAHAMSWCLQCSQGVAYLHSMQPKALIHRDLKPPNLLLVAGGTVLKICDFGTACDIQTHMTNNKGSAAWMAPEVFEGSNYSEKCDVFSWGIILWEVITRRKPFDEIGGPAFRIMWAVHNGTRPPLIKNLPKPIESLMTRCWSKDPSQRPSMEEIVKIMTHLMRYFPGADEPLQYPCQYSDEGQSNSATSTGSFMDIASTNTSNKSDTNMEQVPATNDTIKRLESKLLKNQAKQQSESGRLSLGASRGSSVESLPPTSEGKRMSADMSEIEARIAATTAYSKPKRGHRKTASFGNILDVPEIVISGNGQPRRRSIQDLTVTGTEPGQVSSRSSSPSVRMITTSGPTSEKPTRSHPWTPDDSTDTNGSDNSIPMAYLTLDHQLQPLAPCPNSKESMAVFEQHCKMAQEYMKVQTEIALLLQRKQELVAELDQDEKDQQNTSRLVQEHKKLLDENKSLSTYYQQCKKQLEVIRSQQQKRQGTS

## CC(C)=CCc1c(OCCCCNCCN2CCOCC2)ccc2ccc(=O)oc12
J774.A1 [1]
  Activity: Non-Toxic
THP-1
  IC50: 27.4 µM
RAW264.7 [2]
  IC50: 4.57 µM
RAW264.7 [3]
  IC50: 29.7 µM
RAW264.7 [4]
  Ratio IC50: 3.8
[5]
  half-life: 10.7 h
[6]
  AUC(0-t): 1120 ng·h/mL
[7]
  Activity: Non-Toxic
[8]
  Activity: Non-Toxic
[9]
  Activity: Non-Toxic
[10]
  Activity: Non-Toxic
[11]
  Activity: Non-Toxic
[12]
  Activity: Non-Toxic
J774.A1 [13]
  inhibition: inactive
J774.A1 [14]
  inhibition: Active
J774.A1 [15]
  inhibition: inactive
[16]
  inhibition: 10.3%
Mus musculus [17]
  Activity: Active
Mus musculus [18]
  Activity: Active
Mus musculus [19]
  Activity: Active
Mus musculus [20]
  Activity: Active
Mus musculus [21]
  Activity: Active
Mus musculus [22]
  Activity: Active
Mus musculus [23]
  Activity: Active
Mus musculus [24]
  Activity: Active
Mus musculus [25]
  Activity: Active
Mus musculus [26]
  Activity: Active
Mus musculus [27]
  Activity: Active
Mus musculus [28]
  Activity: Active
Mus musculus [29]
  Activity: Active
Mus musculus [30]
  Activity: Active
[31]
  inhibition: 5.23%
